Source: patent publication US11209411B2, “Methods for analyzing stability of an active pharmaceutical ingredient” (Purdue Research Foundation, priority 2018, dated 2021)

Legend:
[1] = Accelerated forced degradation in Leidenfrost droplets, oxidative (H2O2), nanospray MS; assay type: physicochemical; settings: 0.3% H2O2, 90% methanol-10% H2O
Text: (§1) Particularly, the degradation of three APIs in Leidenfrost droplets is exemplified, under conditions of constant volume achieved by adding make-up solvent automatically via a syringe pump during the levitation period. The data were compared with the degradation of the corresponding bulk material under similar conditions of solvent and temperature. In both droplet and bulk, degradation products are monitored by mass spectrometry and the ratio of products to reactants was used to infer the extent of reaction (Table 1).
(§2) Traditional forced degradation was performed by preparing a stock stress solution of hydrochloric acid or hydrogen peroxide, and a stock solution of the compound of interest (the API). Then the solutions were mixed and allowed to react at a set temperature for a set period of time (FIG. 1A). The composition of the final reaction mixture was analyzed by nanospray MS and the data for the bulk phase experiments are given in Table 1. Likewise, the Leidenfrost reaction mixture was made by the same method, then instead of letting the mixed solution age at a set temperature, it was dropped into a ceramic well which was placed on hot plate held at a temperature of 540° C. to form a much cooler Leidenfrost droplet (FIG. 1B). […] Here, both bulk and Leidenfrost products are analyzed by using nanospray MS.

[2] = Traditional forced degradation in bulk solution, oxidative (H2O2), nanospray MS; assay type: physicochemical; settings: 45 μg/mL, 0.3% H2O2, 90% methanol-10% H2O
Text: as §1, §2

[3] = Accelerated forced degradation in Leidenfrost droplets, acid (HCl), nanospray MS; assay type: physicochemical; settings: 0.5M HCl, 90% propanol-10% H2O, without make-up solvent
Procedure: The data were compared with the degradation of the corresponding bulk material under similar conditions of solvent and temperature. In both droplet and bulk, degradation products are monitored by mass spectrometry and the ratio of products to reactants was used to infer the extent of reaction (Table 1).
as §2

[4] = Traditional forced degradation in bulk solution, acid (HCl), nanospray MS; settings: 450 μg/mL
Text: as §1, §2

Row | Leidenfrost Time ([1]; 45 μg/mL, Leidenfrost droplet 40° C., constant volume, time to reach Set Ratio 3%) [s] | Accel. Factor ([1]; Leidenfrost droplet vs bulk, 40° C.) | Set Ratio (products to reactants, extent of degradation) ([2]; 40° C., reached after 1.5 h in bulk, 180 s in Leidenfrost droplet) [%] | Bulk Time ([2]; bulk 40° C., time to reach Set Ratio 3%) [h^] | Leidenfrost Time ([3]; 450 μg/mL, Leidenfrost droplet 80° C., time to reach Set Ratio 2.5%) [s] | Accel. Factor ([3]; Leidenfrost droplet vs bulk, 80° C.) | Bulk Time ([4]; 0.5M HCl, 90% propanol-10% H2O, bulk 80° C., time to reach Set Ratio 2.5%) [h] | Set Ratio (products to reactants, extent of degradation) ([4]; 3 h) [%^] | SMILES
1 | 180 | ~20 | 3 | 1.5 |  |  |  |  | CN1CCN(CCCN2c3ccccc3Sc3ccc(C(F)(F)F)cc32)CC1 [Trifluoperazine (TFP), Trifluoperazine]
2 |  |  |  |  | 40 | ~270 | 3 | 2.5 | NS(=O)(=O)c1cc2c(cc1Cl)NCNS2(=O)=O [Hydrochlorothiazide (HCTZ), Hydrochlorothiazide]
